According to patent publication US10335400B2, “Treatment of tauopathies with mGluR5 antagonists” (priority 2014, dated 2019):
Entries after “also recorded” stand apart in the source; their conditions may differ.

Columns and labels:
[1] = system: tau; test: Tau phosphorylation (Western blots) in metabolically active rat brain slices; assay type: cell-based; settings: rat brain slices; for BMAA-induced tau hyperphosphorylation at the 12E8 site: 30 min preincubation
Experimental: (§1) Male Wistar rats (Charles River Laboratories), 2-3 months old, were anesthetized by i.p. injection with 50 mg/kg Nembutal. The animals were decapitated when deeply anesthetized. The brains were removed immediately and cooled in ice-cold (4° C.) oxygenated artificial cerebrospinal fluid (aCSF) consisting of 126 mM NaCl, 3.5 mM KCl, 1.2 mM NaH2PO4, 1.3 mM MgCl2, 2 mM CaCl2, 11 mM D(+) glucose, and 25 mM NaHCO3 (pH 7.4) for 7-8 min. Each brain then was divided sagittally, and 400-μm-thick coronal slices were made with a Camden Vibraslicer (WP, Inc.). The slices were transferred into a chamber containing the oxygenated aCSF and were incubated at 33° C. for 2 h in the presence or absence of 1 mM, β-N ? methylamino-L-alanine (BMAA) dissolved in 10 mM NaHCO3 (Sigma). The oxygenation of the aCSF was carried out by bubbling the solution with a mixture of 95% O2 and 5% CO2 during the entire procedure. At the end of incubation, the brain slices were homogenized with homogenizing buffer [50 mM Tris·HCl (pH 7.4), 8.5% (wt/vol) sucrose, 2 mM EDTA, 2 mM EGTA, 10 mM (3-mercaptoethanol, 5 mM benzamidine, 0.5 mM 4-(2-Aminoethyl) benzenesulfonyl fluoride hydrochloride (AEBSF), 4 μg/mL pepstatin A, and 10 μg/mL each of aprotinin and leupepin] at a ratio of 9.0 mL buffer/1.0 g tissue slices. The homogenates were divided into two parts. One part was centrifuged at 16,000×g for 10 min, and the resulting supernatant was used to assay protein phosphatase 2A (PP2A) activity. Into the other half, an equal volume of phosphatase-inhibitor mixture (20 mM 3-glycerophosphate, 2 mM Na3VO4, and 100 mM NaF) was added immediately, and the samples were used for Western blots.
Protein was fractionated by 10% SDS/PAGE, transferred to PVDF membrane, and then blocked with 5% skim milk for 1 h at room temperature. The membrane was probed with anti-IPP2A (5G6, 1:1, 500) (7), anti-I2P2A (10E7, 1:1, 600) (7), anti-tau ˜92e; 1:5,000) (8), anti-tau (R134d; 1:5 000) (9), anti-tau pSer^262/^356 (12E8; 1:500) (10, anti-tau pSer^199, anti-tau pThr^205, anti-tau pThr^212, and pSer^396 (1:1,000) (Biosource), anti-GAPDH (1:2,000) (Santa Cruz Biotechnology), anti-PP2Ac (1:10 000) (BD Transduction Lab), anti pY^307-PP2A and anti-DML^309-PP2A (1:1,000) (Millipore), anti-GSK-3(α/β), anti-pS^9-GSK-3 β, anti-ERK1/2, anti-pT^202/Y^204-ERK1/2, anti-MEK1/2, anti-p9^17/221-MEK1/2, anti-CAMKII, anti-pT^286-CAMKII, anti-p70 S6 kinase, anti-pT^389-p70 S6 kinase, anti-SAPK/JNK, and anti-pT^183/Y^185-SAPK/JNK (1:1,000) (Cell Signaling Technology). The membrane then was incubated with HRP-conjugated secondary antibody (Jackson ImmunoResearch). The protein bands were detected with the enhanced chemiluminescence reagents (Thermo Scientific). Band intensity was measured by Multi-Gauge V3 software (Fuji Photo Film).

[2] = system: PP2A; test: PP2A activity (phosphatase ELISA) in rat brain slices; assay type: cell-based; settings: 30 min pretreatment, BMAA 1 mM 2 h, rat brain slices
Experimental: as §1

[3] = target: T1, mGluR5-PP2A complex (Mus musculus, UniProt Q3UVX5); test: Coimmunoprecipitation of PP2Ac with mGluR5 in primary neurons; assay type: cell-based
T1 construct: endogenous in cells; host or cells: mouse primary hippocampal neuronal cultures
Experimental: Mouse hippocampal cell proteins were prepared with low-stringency lysis buffer [50 mM Hepes (pH 7.4), 10% (vol/vol) glycerol, 1.5 mM MgCl2, 5 mM NaF, 1 mM Na3VO4, 1 mM EDTA, 1 mM EGTA, 1% Nonidet P-40, 5 mM AEBSF, 10 μg/mL aprotinin, leupeptin, pepstatin] and were homogenized by several freeze-thaw cycles followed by water bath sonication. The homogenate was centrifuged at 14,000×g at 4° C. for 15 min. For transfection experiments with vector (DsRed) and with DsRed-PP2A catalytic subunit (PP2Ac), primary neurons were processed in a similar manner. The supernatants then were used for immunoprecipitation with mouse anti-PP2A (1D6; Millipore) followed by incubation with protein G-Sepharose (Thermo Scientific). The Western blots of immunoprecipitates were probed with rabbit anti-mGluR5 (Millipore) and rabbit anti-PP2Ac [R123d] (FIG. 55).

[4] = system: ERK1/2; test: ERK1/2 phosphorylation in primary neurons treated with okadaic acid; assay type: cell-based, mouse; settings: okadaic acid 10-100 nM, 30 min
Experimental: FIGS. 11A and 11B are images showing the inhibition of PP2A induces ERK1/2 phosphorylation. Primary neurons were treated with the PP2A inhibitor okadaic acid (OA, 10-100 nM) for 30 min and were processed for ERK1/2 analysis. (A) Representative Western blots showing phosphorylation of ERK1/2. (B) Quantitative analysis of pERK1/2 after normalization with total ERK1/2. Data are expressed as mean±SEM. *P<0.05; **P<0.01.
Protein was fractionated by 10% SDS/PAGE, transferred to PVDF membrane, and then blocked with 5% skim milk for 1 h at room temperature. […] The protein bands were detected with the enhanced chemiluminescence reagents (Thermo Scientific). Band intensity was measured by Multi-Gauge V3 software (Fuji Photo Film).

T1 sequence (Q3UVX5 19-1203, one chain of several): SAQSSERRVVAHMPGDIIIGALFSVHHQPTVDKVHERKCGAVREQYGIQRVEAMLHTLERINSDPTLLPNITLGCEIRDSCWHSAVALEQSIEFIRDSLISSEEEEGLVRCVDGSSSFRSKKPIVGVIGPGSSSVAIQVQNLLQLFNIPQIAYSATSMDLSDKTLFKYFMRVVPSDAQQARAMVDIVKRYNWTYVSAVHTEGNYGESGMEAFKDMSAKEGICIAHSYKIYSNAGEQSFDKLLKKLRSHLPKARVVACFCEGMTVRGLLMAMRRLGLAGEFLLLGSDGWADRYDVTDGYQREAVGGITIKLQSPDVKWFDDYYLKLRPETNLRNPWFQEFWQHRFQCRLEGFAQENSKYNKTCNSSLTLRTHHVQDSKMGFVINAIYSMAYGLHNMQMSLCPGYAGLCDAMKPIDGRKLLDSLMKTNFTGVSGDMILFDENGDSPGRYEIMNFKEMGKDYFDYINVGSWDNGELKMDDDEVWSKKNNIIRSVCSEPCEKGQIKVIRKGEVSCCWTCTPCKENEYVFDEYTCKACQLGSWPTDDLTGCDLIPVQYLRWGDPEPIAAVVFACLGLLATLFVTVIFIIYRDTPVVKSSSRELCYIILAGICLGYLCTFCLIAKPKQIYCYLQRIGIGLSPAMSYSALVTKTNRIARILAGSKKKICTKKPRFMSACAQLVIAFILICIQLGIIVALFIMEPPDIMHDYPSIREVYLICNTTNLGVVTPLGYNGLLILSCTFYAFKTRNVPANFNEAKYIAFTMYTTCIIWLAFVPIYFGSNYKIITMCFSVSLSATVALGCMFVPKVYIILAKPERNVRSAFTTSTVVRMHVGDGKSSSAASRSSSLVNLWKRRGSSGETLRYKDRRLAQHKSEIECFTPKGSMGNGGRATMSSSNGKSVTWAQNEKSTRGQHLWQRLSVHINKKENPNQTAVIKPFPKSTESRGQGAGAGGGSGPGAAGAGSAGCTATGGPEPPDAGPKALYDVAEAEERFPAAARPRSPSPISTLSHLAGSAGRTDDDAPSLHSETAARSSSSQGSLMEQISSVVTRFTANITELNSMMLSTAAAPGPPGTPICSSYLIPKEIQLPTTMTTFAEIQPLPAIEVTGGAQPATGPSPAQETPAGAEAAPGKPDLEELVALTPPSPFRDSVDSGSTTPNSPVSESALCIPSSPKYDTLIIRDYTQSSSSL

N#Cc1cc2c(cc1[N+](=O)[O-])=NC(=O)C(=O)N=2 [CNQX, 6-cyano-7-nitroquinoxaline-2,3-dione]
BMAA-induced tau hyperphosphorylation at the 12E8 site ([1]; CNQX 20 μM alone, BMAA 1 mM 2 h): no significant change
BMAA induced decrease in PP2A activity blocked by pretreatment ([2]; CNQX 20 μM): not

CCCCCCCCCCCCC/C=C/[C@@H](O)[C@@H](N)CO [DES, D-Erythro-S]
BMAA-induced tau hyperphosphorylation ([1]; DES 15 nM pretreatment, BMAA 1 mM 2 h): blocked; also recorded: entirely prevented

Cc1cccc(C#Cc2ccccc2)n1 [MPEP, 2-methyl-6-(phenylethynyl)pyridine]
BMAA-induced tau hyperphosphorylation at the 12E8 site ([1]; 50 μM MPEP, BMAA 1 mM 2 h): significantly blocked
BMAA induced decrease in PP2A activity blocked by pretreatment ([2]; MPEP 50 μM): blocked completely
BMAA-induced dissociation of PP2A from mGluR5 [3]: completely blocked

CC(C)(C)n1nc(-c2ccc(Cl)cc2)c2c(N)ncnc21 [PP2]
BMAA-induced tau hyperphosphorylation ([1]; PP2 10 μM, 30 min before BMAA): blocked; also recorded: significantly attenuated

C=C1[C@@H](O)[C@@H]2O[C@]3(CC[C@H](/C=C/[C@@H](C)[C@@H]4CC(C)=C[C@@]5(O[C@H](C[C@@](C)(O)C(=O)O)CC[C@H]5O)O4)O3)CC[C@H]2O[C@@H]1[C@@H](O)C[C@H](C)[C@H]1O[C@@]2(CCCCO2)CC[C@H]1C [okadaic acid]
ERK1/2 phosphorylation [4]: up-regulates
